What is called pIC50 is the negative decadic logarithm of the IC50, by convention in mol/L. A low value points to a large IC50. A word on the inhibition: it is the relative decrease from the control value, in per cent. As a reminder, the half-life is the time needed for the level to fall by half in the phase considered.

Series [1] relates to MV4-11. Description: cells. Particulars: Homo sapiens, MV4-11, 72 h.
Series [2] relates to T1, Receptor-type tyrosine-protein kinase FLT3 (Homo sapiens), P36888 [D835Y].
T1 sequence (whole entry): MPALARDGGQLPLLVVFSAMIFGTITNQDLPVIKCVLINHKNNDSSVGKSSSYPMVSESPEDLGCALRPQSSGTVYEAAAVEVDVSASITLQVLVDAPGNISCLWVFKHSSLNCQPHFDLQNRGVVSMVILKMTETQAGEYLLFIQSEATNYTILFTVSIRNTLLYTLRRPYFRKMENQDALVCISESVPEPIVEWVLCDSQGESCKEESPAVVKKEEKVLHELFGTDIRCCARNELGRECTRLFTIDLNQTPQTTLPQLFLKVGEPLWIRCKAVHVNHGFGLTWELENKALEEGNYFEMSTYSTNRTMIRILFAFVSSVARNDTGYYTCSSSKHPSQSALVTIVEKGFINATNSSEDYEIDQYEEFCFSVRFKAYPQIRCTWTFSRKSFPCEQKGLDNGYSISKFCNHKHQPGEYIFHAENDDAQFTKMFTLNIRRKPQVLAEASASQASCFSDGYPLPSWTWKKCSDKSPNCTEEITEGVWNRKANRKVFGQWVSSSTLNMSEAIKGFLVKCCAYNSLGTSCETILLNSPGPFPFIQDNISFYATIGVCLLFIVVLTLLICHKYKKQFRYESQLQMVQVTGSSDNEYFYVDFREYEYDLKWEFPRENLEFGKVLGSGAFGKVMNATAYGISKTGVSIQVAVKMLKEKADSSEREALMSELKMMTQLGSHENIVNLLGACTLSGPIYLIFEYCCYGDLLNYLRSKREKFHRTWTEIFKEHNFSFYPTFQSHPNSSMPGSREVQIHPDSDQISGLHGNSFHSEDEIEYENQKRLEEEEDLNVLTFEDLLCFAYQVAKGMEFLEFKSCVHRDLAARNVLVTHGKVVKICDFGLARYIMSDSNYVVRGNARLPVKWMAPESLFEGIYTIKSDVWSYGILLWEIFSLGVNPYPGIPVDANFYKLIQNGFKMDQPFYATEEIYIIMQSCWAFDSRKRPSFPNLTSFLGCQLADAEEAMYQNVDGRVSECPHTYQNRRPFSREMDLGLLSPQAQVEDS
Description: Covalent binding affinity to recombinant human FLT3 D835Y mutant (571 to 993 residues) expressed in baculovirus expression system at 50 uM by Western blot analysis. Background: In western blotting, separated proteins are transferred to a membrane and probed.

Series [3] has the same test system. The series is described as follows: Irreversible inhibition of recombinant human FLT3 D835Y mutant (571 to 993 residues) expressed in baculovirus expression system at 1 uM preincubated for 5 to 30 mins followed by myelobasic protein addition measured after 120 mins using BODIPY-tagged compounds in presence of ATP by ADP-Glo assay relative to control. On the technique in general: ADP-Glo turns the ADP formed in a reaction into a luminescent signal.

The nature of series [4]: Drug uptake in zebrafish embryo gastrointestine at 10 uM starting 1 dpf and measured at 4 dpf by fluorescence microscopy. Type of series: ADME, Danio rerio, Gastrointestinal tract. Particulars: in vivo.
Series [5] deals with T1, Receptor-type tyrosine-protein kinase FLT3 (Homo sapiens), P36888 [D835Y]. Description: Covalent binding affinity to recombinant human FLT3 D835Y mutant (571 to 993 residues) expressed in baculovirus expression system at 100 uM by Western blot analysis.
The nature of series [6]: Toxicity in zebrafish embryo assessed as mortality at 10 uM measured 120 hpf by fluorescence microscopy. More on the design: species or system Danio rerio. Conditions: in vivo.
The next series concerns Jurkat. Description: cells. Conditions: Homo sapiens, 72 h.
A short description of another series: physchem. Conditions: potassium phosphate buffer with reduced glutathione.
A further series has as its system THP-1. Description: cells. Conditions: Homo sapiens, THP-1, 72 h.
In a further series the test system is MOLM-14. The series is described as follows: cells. Conditions: Homo sapiens, MOLM-14, 72 h.
Series [7] concerns MV4-11. Description: Cytotoxicity in human MV4-11 cells assessed as inhibition of cellular viability at 0.5 to 5000 nM incubated for 2 to 8 hrs followed by compound washout by CellTiter-Glo luminescent assay. Type of series: functional, cell-based. Background: Cellular ATP, detected with luciferase, serves as a proxy for viable cell number.
The target of series [8] is Glycogen synthase kinase-3 alpha (Homo sapiens) (UniProt P49840). Description: Inhibition of human N-terminal His-tagged GSK3alpha expressed in baculovirus expression system at 1 uM relative to control.
Chain of Glycogen synthase kinase-3 alpha (Homo sapiens) (P49840 2-483 limits assumed): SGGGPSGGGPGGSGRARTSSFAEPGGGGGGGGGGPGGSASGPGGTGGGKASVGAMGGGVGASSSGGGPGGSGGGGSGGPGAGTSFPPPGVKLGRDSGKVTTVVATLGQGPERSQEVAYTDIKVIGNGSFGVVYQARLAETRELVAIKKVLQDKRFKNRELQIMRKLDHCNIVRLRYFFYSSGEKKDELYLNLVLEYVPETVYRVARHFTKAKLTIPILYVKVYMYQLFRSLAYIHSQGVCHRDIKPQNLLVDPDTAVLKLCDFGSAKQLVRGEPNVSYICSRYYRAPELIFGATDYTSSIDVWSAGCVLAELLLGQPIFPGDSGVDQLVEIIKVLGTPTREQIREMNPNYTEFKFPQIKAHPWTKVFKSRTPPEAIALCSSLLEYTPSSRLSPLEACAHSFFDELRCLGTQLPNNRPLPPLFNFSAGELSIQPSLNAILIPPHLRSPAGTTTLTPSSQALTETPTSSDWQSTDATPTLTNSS
The target of series [9] is Glycogen synthase kinase-3 beta (Homo sapiens) (UniProt P49841). The series is described as follows: Inhibition of human N-terminal His-tagged GSK3beta expressed in baculovirus expression system at 1 uM relative to control.
Chain of Glycogen synthase kinase-3 beta (Homo sapiens) (P49841 whole entry, looked up, the tested form may be a part): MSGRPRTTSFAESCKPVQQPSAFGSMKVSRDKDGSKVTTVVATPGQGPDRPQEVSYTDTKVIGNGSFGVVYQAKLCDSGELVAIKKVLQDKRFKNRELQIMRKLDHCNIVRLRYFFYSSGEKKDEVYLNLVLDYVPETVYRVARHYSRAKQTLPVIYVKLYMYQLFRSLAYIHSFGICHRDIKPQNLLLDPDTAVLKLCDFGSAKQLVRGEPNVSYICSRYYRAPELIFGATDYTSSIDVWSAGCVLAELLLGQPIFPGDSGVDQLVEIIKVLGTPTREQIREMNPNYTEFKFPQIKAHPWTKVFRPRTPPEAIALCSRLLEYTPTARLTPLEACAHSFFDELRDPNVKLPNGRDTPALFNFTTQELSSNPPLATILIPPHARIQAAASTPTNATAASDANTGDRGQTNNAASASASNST
Series [10] relates to T1, Receptor-type tyrosine-protein kinase FLT3 (Homo sapiens), P36888 [D835Y]. Description: Inhibition of covalent binding of (Z)-N-(2-(2-(4-(2,8-Diethyl-5,5-difluoro-1,3,7,9-tetramethyl-5H-4lambda4,5lambda4-dipyrrolo[1,2-c:2',1'-f ][1,3,2]diazaborinin-10-yl)phenoxy)-acetamido)ethyl)-2,4-dimethyl-5-((2-oxo-5-(vinylsulfon-amido)-indolin-3-ylidene)methyl)-1H-pyrrole-3-carboxamide to recombinant human FLT3 D835Y mutant (571 to 993 residues) expressed in baculovirus expression system at […] by Western blot analysis.

pIC50: −log10 of the molar value. The source made the active and inactive calls.

For the compound `C=CC(=O)Nc1ccc2c(c1)/C(=C/c1ccc[nH]1)C(=O)N2`, in the series on MV4-11 [1], the negative-log IC50 (pIC50) was below 9.00.

Regarding `C=CS(=O)(=O)Nc1ccc2c(c1)/C(=C/c1[nH]c(C)c(C(=O)NCCNC(=O)COc3ccc(C4=C5C(C)=C(CC)C(C)=[N+]5[B-](F)(F)n5c(C)c(CC)c(C)c54)cc3)c1C)C(=O)N2`, the result in series [2] and in series [5] was Active. Besides, the inhibition in series [3] is 89%. The Drug uptake result in [4] is given as “Active”.

For `CCC1=C(C)C2=C(c3ccc(OCC(=O)NCCNC(=O)c4c(C)[nH]c(/C=C5\C(=O)Nc6ccc(NC(=O)C(F)(F)F)cc65)c4C)cc3)c3c(C)c(CC)c(C)n3[B-](F)(F)[N+]2=C1C`, the inhibition in [2] stood at 7%; in [3], 34%. In series [5], the Activity was 18%.

`C=CC(=O)Nc1cccc(Nc2nccc(Nc3cc(C4CC4)[nH]n3)n2)c1`: the pIC50 in the series on MV4-11 [1] was 6.10.

Regarding `O=C(CBr)Nc1ccc2c(c1)/C(=C/c1ccc[nH]1)C(=O)N2`, the negative logarithm of the IC50 (pIC50) in the series with MV4-11 [1] is 6.19. The Activity entry in series [6] is “Toxic”.

On to `CCN(CC)CCNC(=O)c1c(C)[nH]c(/C=C2\C(=O)Nc3ccc(NC(=O)CCl)cc32)c1C`, for which the pIC50 in the series with Jurkat was below 6.00; in the series with MV4-11 [1], 7.68; in the series with THP-1, below 6.00; in the series on MOLM-14, 7.58. The compound further registered a half-life at 10 µM in the series “physchem” of 3.63 h. In addition, the Activity result in series [6] is given as “Non-Toxic”.

`CC(=O)Nc1ccc(Nc2nccc(Nc3cc(C4CC4)[nH]n3)n2)cc1` showed a pIC50 in the series on MV4-11 [1] below 9.00.

In the series on MV4-11 [1], `c1ccc(-c2cnc3[nH]cc(-c4ccccc4)c3c2)cc1` showed a negative logarithm of the IC50 (pIC50) below 9.00.

In turn, `O=C(CF)Nc1ccc2c(c1)/C(=C/c1ccc[nH]1)C(=O)N2` gave a pIC50 with MV4-11 [1] of 6.07. In “physchem”, this compound came in with a half-life at 10 µM above 24 h. For the same compound, in series [6], the Activity result is “Toxic”.

`C=CC(=O)Nc1ccc(Nc2nccc(Nc3cc(C4CC4)[nH]n3)n2)cc1` gave a pIC50 in the series on MV4-11 [1] of 6.28.

For the compound `CC1(COc2ccc3c(c2)ncn3-c2ccc3cccc(N4CCC(N)CC4)c3n2)COC1` [CRENOLANIB], the pIC50 in the series with Jurkat is below 6.00; in the series on MV4-11 [1], 7.92; in the series with THP-1, below 6.00. The outcome in the series on MV4-11 [7] was Active. Further, the Activity entry in series [6] was “Toxic”.

For the compound `CCN(CC)CCNC(=O)c1c(C)[nH]c(/C=C2\C(=O)Nc3ccc(NC(C)=O)cc32)c1C`, in the series with MV4-11 [1], the pIC50 was below 6.00.

For the compound `O=C1Nc2ccccc2/C1=C/c1ccc[nH]1`, the values for the inhibition in series [8] and in series [9] were 12% and -6%, respectively.

`c1ccc(Nc2nccc(Nc3cc(C4CC4)[nH]n3)n2)cc1` showed a pIC50 in the series with MV4-11 [1] of 6.64. Further, the results for the inhibition in series [8] and in [9] were 74% and 76%, respectively. Besides, the Activity result in series [6] was “Toxic”.

For `C=CS(=O)(=O)Nc1cccc(Nc2nccc(Nc3cc(C4CC4)[nH]n3)n2)c1`, the negative logarithm of the IC50 (pIC50) in the series on Jurkat was 7.36; with MV4-11 [1] it was 8.64; in the series with THP-1, 6.76.

In turn, `c1ccc(-c2cnc3ccccn23)cc1` gave a negative logarithm of the IC50 (pIC50) in the series with MV4-11 [1] below 9.00.

With `O=C(O)Cc1c[nH]c2ccccc12`, the inhibition result in series [10] is “Active”.

Consider `C#CC(=O)Nc1ccc(Nc2nccc(Nc3cc(C4CC4)[nH]n3)n2)cc1`, for which, in the series with MV4-11 [1], the pIC50 was below 9.00.

As to `CCS(=O)(=O)Nc1ccc2c(c1)/C(=C/c1ccc[nH]1)C(=O)N2`, in the series with MV4-11 [1], the pIC50 was below 9.00.

For the compound `CC(=O)Nc1ccc2c(c1)/C(=C/c1[nH]c(C)c(C(=O)NCCNC(=O)CCc3ccc4n3[B-](F)(F)[N+]3=C(C)C=C(C)C3=C4)c1C)C(=O)N2`, the outcome in [2] and in series [5] was inactive. In addition, in series [3], the inhibition was found to be 23%.

With `CC(=O)Nc1ccc2c(c1)/C(=C/c1ccc[nH]1)C(=O)N2`, the pIC50 in the series on MV4-11 [1] is below 9.00. In addition, the Activity result in [6] is on record as “Non-Toxic”.

`O=C1Nc2ccccc2/C1=C/c1ccccc1`: the pIC50 in the series with MV4-11 [1] was below 9.00.

Consider `C=CS(=O)(=O)Nc1ccc(Nc2nccc(Nc3cc(C4CC4)[nH]n3)n2)cc1`, for which the pIC50 is 6.53 in the series with Jurkat, 7.24 in the series on MV4-11 [1] and 6.29 with THP-1.

`C#CC(=O)Nc1cccc(Nc2nccc(Nc3cc(C4CC4)[nH]n3)n2)c1` gave a pIC50 with MV4-11 [1] below 9.00.

Turning to `CCC(=O)Nc1cccc(Nc2nccc(Nc3cc(C4CC4)[nH]n3)n2)c1`, the pIC50 in the series on MV4-11 [1] is below 9.00.

The compound `CC(=O)Nc1cccc(Nc2nccc(Nc3cc(C4CC4)[nH]n3)n2)c1` gave a pIC50 in the series with MV4-11 [1] below 9.00.

In the series with MV4-11 [1], `O=C(CCl)Nc1ccc2c(c1)/C(=C/c1ccc[nH]1)C(=O)N2` had a pIC50 of 7.14.

For `CC1=CC(C)=[N+]2C1=Cc1ccc(CCC(=O)NCCNC(=O)c3c(C)[nH]c(/C=C4\C(=O)Nc5ccc(NC(=O)CCl)cc54)c3C)n1[B-]2(F)F`, in series [2], the outcome was Active. Besides, the inhibition in [3] turned out to be 55%. The Drug uptake result in series [4] is “Active”.

Compound `CCN(CC)CCNC(=O)c1c(C)[nH]c(/C=C2\C(=O)Nc3ccc(NS(=O)(=O)CC)cc32)c1C` showed a negative logarithm of the IC50 (pIC50) in the series with MV4-11 [1] of 6.19.

`CCC(=O)Nc1ccc(Nc2nccc(Nc3cc(C4CC4)[nH]n3)n2)cc1` showed a pIC50 in the series with MV4-11 [1] below 9.00.

As for `O=C(CCl)Nc1cccc(Nc2nccc(Nc3cc(C4CC4)[nH]n3)n2)c1`, in the series with MV4-11 [1], the negative logarithm of the IC50 (pIC50) was 6.76.

As for `C=CS(=O)(=O)Nc1ccc2c(c1)/C(=C/c1ccc[nH]1)C(=O)N2`, the pIC50 with MV4-11 [1] is 7.17. Compared with the last compound, the pIC50 is 0.41 log units higher.

Consider `CCS(=O)(=O)Nc1cccc(Nc2nccc(Nc3cc(C4CC4)[nH]n3)n2)c1`, for which the pIC50 in the series on MV4-11 [1] is 6.31.

With `COc1cc(O)c2c(c1)[C@H]1O[C@@H]1C[C@H](O)[C@H](O)C(=O)/C=C\C[C@H](C)OC2=O` [HYPOTHEMYCIN], the values for the pIC50 in the series with Jurkat, with MV4-11 [1] and in the series with THP-1 were below 6.00, 7.82 and below 6.00, respectively. In series [6], the Activity result is reported as “Toxic”.

In the series on MV4-11 [1], `CCC(=O)Nc1ccc2c(c1)/C(=C/c1ccc[nH]1)C(=O)N2` gave a negative logarithm of the IC50 (pIC50) below 9.00.

In turn, `O=C(CCl)Nc1ccc(Nc2nccc(Nc3cc(C4CC4)[nH]n3)n2)cc1` gave a pIC50 with MV4-11 [1] of 6.85.

With `C#CC(=O)Nc1ccc2c(c1)/C(=C/c1ccc[nH]1)C(=O)N2`, in the series with MV4-11 [1], the negative logarithm of the IC50 (pIC50) was 6.15.

On to `CCS(=O)(=O)Nc1ccc(Nc2nccc(Nc3cc(C4CC4)[nH]n3)n2)cc1`, for which the negative-log IC50 (pIC50) with MV4-11 [1] was 6.89.

The record behind these values is ChEMBL document CHEMBL4400537, “Virtual Screening Identifies Irreversible FMS-like Tyrosine Kinase 3 Inhibitors with Activity toward Resistance-Conferring Mutations” (J Med Chem, 2019).
